Results: PubChem BioAssay (NCI)
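48-hour exposure; five concentrations; linearly interpolated endpoints. Abbreviation: GI50, concentration required for 50% inhibition of growth. TGI denotes the concentration required for complete inhibition of growth.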

Columns and labels:
Assay in all cases: DTP human tumour cell line panel, 48 h
DLD-1 colon = system: DLD-1 colon
DMS 114 small cell lung = system: DMS 114 small cell lung
DMS 273 small cell lung = system: DMS 273 small cell lung
HOP-18 NSCLC = system: HOP-18 NSCLC
HOP-62 NSCLC = system: HOP-62 NSCLC
KM20L2 colon = system: KM20L2 colon
LXFL 529 NSCLC = system: LXFL 529 NSCLC
M19-MEL melanoma = system: M19-MEL melanoma
RXF-631 renal = system: RXF-631 renal
SNB-19 CNS = system: SNB-19 CNS
SNB-78 CNS = system: SNB-78 CNS
XF 498 CNS = system: XF 498 CNS

Row | Compound | TGI (DLD-1 colon) | TGI (DMS 114 small cell lung) | TGI (DMS 273 small cell lung) | TGI (HOP-18 NSCLC) | TGI (HOP-62 NSCLC) | TGI (KM20L2 colon) | TGI (LXFL 529 NSCLC) | TGI (M19-MEL melanoma) | TGI (RXF-631 renal) | TGI (SNB-19 CNS) | TGI (SNB-78 CNS) | TGI (XF 498 CNS) | GI50 (SNB-78 CNS)
1 | CC(=O)OC1COC(N2C(=O)C(=O)c3cc(Br)c([N+](=O)[O-])cc32)C(OC(C)=O)C1OC(C)=O (stereo not given) | > 100 µM | 65.8 µM | > 100 µM | > 100 µM | > 100 µM | > 100 µM | > 100 µM | 62.5 µM | > 100 µM | > 100 µM | > 100 µM | > 100 µM | 
2 | N#Cc1nn(-c2ccc(Cl)cc2)c(N)c2c(=N)n3nc(-c4ccccc4)cc3nc12 | > 64.2 µM |  | > 100 µM |  | > 33.8 µM | > 100 µM | > 54.4 µM |  |  | > 100 µM | > 100 µM | > 100 µM | > 100 µM
3 | COc1cc(/C=C\c2ccc(SC)cc2)cc(OC)c1OC | > 100 µM | 0.268 µM | 1.95 µM | 11.6 µM | > 76.3 µM | 0.0448 µM | 5.38 µM | > 100 µM |  |  | > 100 µM | 19.8 µM | 
4 | O=Cc1cc(O)c(O)c(O)c1-c1c(C=O)cc(O)c(O)c1O | > 100 µM | > 100 µM | > 100 µM | > 100 µM | > 100 µM | > 100 µM | > 100 µM | > 100 µM |  | > 100 µM | > 100 µM |  | 
5 | Cc1[nH]n(C(=O)c2ccccc2O)c(=O)c1/C=C1\C(=O)C=Cc2ccccc21 |  | 0.801 µM |  |  | 6.64 µM | 75.6 µM | 42.4 µM |  |  | 64.3 µM | 98.8 µM | 29 µM | 
6 | C=C1C(=O)OC2C(C)C3C=CC(=O)[C@@]3(C)C(OC(=O)/C(C)=C/C)C1[C@@H]2OC(C)=O (stereo not given in full) | 1.79 µM | 2.37 µM | 1.81 µM | 3.28 µM | 2.86 µM | 2.99 µM | 1.16 µM | 1.84 µM |  | 4.13 µM | 2.8 µM | 2.53 µM | 
7 | CC1(c2cccc(C3CCC4(C=CC3=O)OCCO4)c2)OCCO1 (stereo not given) | 11 µM | 3.68 µM | 22.9 µM |  | 47.9 µM | 16.8 µM | 3.97 µM | 25.8 µM |  | > 45.9 µM | 48.7 µM |  | 
8 | OC(Cn1cncn1)(Cn1cncn1)c1ccc(Cl)cc1Cl | > 100 µM | > 100 µM | > 100 µM | > 100 µM | > 100 µM | > 100 µM | > 100 µM | > 100 µM |  |  | > 100 µM |  | 
9 | COC(=O)CP1(=O)OC2C(C3CCC2(C)C3(C)C)N1c1cc(C(F)(F)F)cc(C(F)(F)F)c1 (stereo not given) |  |  |  |  | 85.7 µM |  |  |  |  | > 100 µM |  |  | 
10 | CCOC(=O)/C(O)=C(\C=N\C(=S)Nc1ccc(Cl)c(Cl)c1)C(=O)OCC |  |  |  |  | > 100 µM |  |  |  |  | > 100 µM |  |  | 
11 | CCOC(=O)c1cc(-c2ccc(OC)c(OC)c2)cn1C |  |  |  |  | > 10 µM |  |  |  |  | > 10 µM |  |  | 
12 | NS(=O)(=O)c1ccc(CNC(=S)NC(=O)Nc2ccc(Cl)c(Cl)c2)cc1 |  |  |  |  | 38.3 µM |  |  |  |  | 44.3 µM |  |  | 
13 | CCOC(=O)c1c(OCC)[nH]c(=O)c(C(c2ccc(F)cc2)c2c(O)c(C(=O)OCC)c(OCC)[nH]c2=O)c1O |  |  |  |  | 36.1 µM |  |  |  |  | 42.2 µM |  |  | 
14 | C(=N\NC1=NCCCN1)/c1ccc(-c2cn3cc(/C=N/NC4=NCCCN4)ccc3n2)cc1 |  |  |  |  | > 100 µM |  |  |  |  | > 100 µM |  |  | 
15 | C#CCNC(Cc1ccccc1)C(=O)O (stereo not given) |  |  |  |  | > 100 µM |  |  |  |  | > 100 µM |  |  | 
16 | CC1(C(O)c2ccccc2)CN(C(C)(C)C)C(=O)/C1=C\Sc1ccccc1 (stereo not given) |  |  |  |  | > 100 µM |  |  |  |  | > 100 µM |  |  | 
17 | O=c1[nH]c2ccc(CC(=S)N3CCN(c4ccccc4)CC3)cc2s1 |  |  |  |  | 50.1 µM |  |  |  |  | > 100 µM |  |  | 
